Patent US20160375103A1, “DIURETIC AND NATRIURETIC POLYPEPTIDES” (Mayo Foundation for Medical Education and Research, priority 2006, published 2016)

Columns and labels:
[1] = system: HUVECs; test: cGMP levels in HUVECs; type: cell-based, human
Source text: FIG. 11 is a bar graph plotting cGMP levels in HUVECS treated with BNP, ASBNP, or ASBNP.1 at the indicated concentrations. OX represents oxidized, and non-OX represents non-oxidized.
(§1) In some embodiments, a polypeptide provide herein can lack the ability to stimulate production of cGMP in human umbilical vascular endothelial cells (HUVEC). Intracellular cGMP production can be assayed using, for example, the BIOTRACK cGMP enzyme immunoassay kit (Amersham Pharmacia Biotech). In other embodiments, a polypeptide provide herein can lack vasoactivity. Vasoactivity can be assessed by determining responsitivity of a blood vessel (e.g., a carotid artery in an organ chamber) to the polypeptide.
(§2) The following experiments were performed to compare the activities of BNP, ASBNP, and ASBNP.1 polypeptides. Briefly, synthesized forms of BNP, ASBNP, and ASBNP.1 were administered to HUVECs and HASMCs, and cGMP levels were determined.

[2] = system: paced dog model of congestive heart failure (CHF); test: intravenous infusion in paced dog model of congestive heart failure (CHF), consecutive doses; type: in vivo; conditions: paced CHF dogs
Procedure: The biological effects of intravenous ABNP.1 infusion were tested in a paced dog model of congestive heart failure (CHF). Briefly, 10 dogs underwent surgical implantation of a programmable cardiac pacemaker (Medtronic, Minneapolis, Minn.). After postoperative recovery, the animals received 11 days of rapid ventricular pacing (240 beats/minute), which can induce overt congestive heart failure CHF as described elsewhere (Chen et al., Circulation, 100:2443-2448 (1999)). The dogs were intravenously infused with 2, 10, and 100 pmol of an ASBNP.1 polypeptide preparation, i.e., each dog received consecutive infusions of 2, 10, and 100 pmol of an ASBNP.1 polypeptide preparation.
Acute hemodynamic studies were performed at the time of infusion, and comparisons were made between groups and among dogs at baseline and during each infusion. Urine flow, urinary sodium excretion, distal fractional tubular sodium reabsorption, proximal tubular fractional sodium reabsorption, plasma cGMP levels, rennin levels, glomerular filtration rate, renal blood flow, mean arterial blood pressure, urinary cGMP excretion, urinary ANP excretion, urinary BNP excretion, plasma BNP levels, plasma ANP levels, pulmonary capillary wedge pressure, cardiac output, systemic vascular resistance, angiotensin II levels, and aldosterone levels were measured as described elsewhere (Chen et al., Am. J. Physiol. Regul. Integr. Comp. Physiol., 288: R1093-R1097 (2005) and Haber et al., J. Clin. Endocrinol. Metab., 29:1349-1355 (2005)). […] There was no effect on distal tubular fractional sodium reabsorption, proximal tubular fractional sodium reabsorption renal blood flow, plasma cGMP, mean arterial blood pressure, plasma BNP, plasma ANP, pulmonary capillary wedge pressure, or angiotensin II levels (FIGS. 17, 18, 19, 22, 23, 28, 29, and 32).

[3] = system: normal dogs; test: intravenous infusion of ASBNP.1 in normal dogs; type: in vivo, dog
Procedure: A truncated form of ASBNP that terminates prior to the cysteine and contains a 13 amino acid C-terminus tail was designed and synthesized. This polypeptide is referred to as an ASBNP.1 polypeptide (FIG. 1). The biological effects of intravenous ABNP.1 infusion were tested in normal dogs. Briefly, six normal dogs were infused with 2, 10, and 100 pmol of an ASBNP.1 polypeptide preparation, i.e., each dog received consecutive infusions of 2, 10, and 100 pmol of an ASBNP.1 polypeptide preparation. Urine flow, urinary sodium excretion, distal fractional tubular sodium reabsorption, proximal tubular fractional sodium reabsorption, mean arterial blood pressure, plasma cGMP levels, glomerular filtration rate, renal blood flow, and plasma renin levels were measured as described elsewhere (Chen et al., Am. J. Physiol. Regul. Integr. Comp. Physiol., 288: R1093-R1097 (2005) and Haber et al., J. Clin. Endocrinol. Metab., 29:1349-1355 (2005)). […] Systemic administration of the ASBNP.1 polypeptide had no effect on glomerular filtration rate, renal blood flow, or mean arterial blood pressure (FIGS. 8-10).

[4] = system: HASMCs; test: cGMP levels in HASMCs; type: cell-based
Procedure: FIG. 12 is a bar graph plotting cGMP levels in HASMCS treated with BNP, ASBNP, or ASBNP.1 at the indicated concentrations. OX represents oxidized, and non-OX represents non-oxidized.
as §2

[5] = system: paced dogs; test: 90 minute infusion of ASBNP.1 (100 pmol/kg/minute) in paced dogs; type: in vivo, dog; conditions: 100 pmol/kg/minute for 90 minutes
Procedure: FIG. 34 is a graph plotting urinary sodium excretion (microEq/min) in paced dogs at the indicated times after beginning administration of ASBNP.1 polypeptide (100 pmol/kg/minute) for 90 minutes. BL=baseline; 30 min=30 minutes of ASBNP.1 polypeptide administration; 60 min=60 minutes of ASBNP.1 polypeptide administration; 90 min=90 minutes of ASBNP.1 polypeptide administration; Washout=after washout period at stop of infusion; Rec 1=30 minutes after stopping infusion; and Rec 2=60 minutes after stopping infusion.
In another experiment, an ASBNP.1 polypeptide preparation was administered to dogs (100 pmol/kg/minute for 90 minutes). Urinary sodium excretion, urine flow, mean arterial blood pressure, renal blood flow, pulmonary capillary wedge pressure, and cardiac output were measured after 30, 60, and 90 minutes of administering the ASBNP.1 polypeptide. Administration of ASBNP.1 polypeptide was followed by a washout period of 30 minutes. The washout was performed by administering normal saline. Urinary sodium excretion, urine flow, mean arterial blood pressure, renal blood flow, pulmonary capillary wedge pressure, and cardiac output were measured again after the washout period, and after each of two recovery periods at 60 minutes (Rec 1) and 90 minutes (Rec 2) after administration of the ASBNP.1 polypeptide.

[6] = system: rabbit artery that was pre-constricted; test: vasoactivity in pre-constricted rabbit artery (vascular rings); conditions: compared with BNP
Source text: FIG. 13 is a line graph plotting vasoactivity measurements obtained from rabbit vascular rings treated with either BNP, ASBNP, or ASBNP.1 at the indicated concentrations.
as §1, §2

[7] = consecutive i.v. infusions of 2, 10, 100 pmol
[8] = normal dogs, 2, 10, 100 pmol i.v.
[9] = normal dogs, consecutive i.v. infusions of 2, 10, 100 pmol

## ASBNP.1: truncated form of ASBNP that terminates prior to the cysteine, 13 amino acid C-terminus tail; 42 amino acid residues (SEQ ID NO:1) (SPKMVQGSGCFGRKMDRISSSSGLGCKGKHPLPPRPPSPIPV)
[1]
  cGMP levels in HUVECs: no effect
[2]
  aldosterone: increased from the administration of the low level of polypeptide and continued to increase throughout the remainder of the experiment
  angiotensin II levels: no effect
  cardiac output: decreased from the administration of the high level of polypeptide and remained decrease throughout the remainder of the experiment
  distal tubular fractional sodium reabsorption: no effect
  mean arterial blood pressure: no effect
  plasma ANP: no effect
  plasma BNP: no effect
  plasma cGMP: no effect
  proximal tubular fractional sodium reabsorption: no effect
  pulmonary capillary wedge pressure: no effect
  renal blood flow: no effect
  renin: increased throughout the washout period
  systemic vascular resistance: increased during the high, super high, washout, and recovery 1 phases
[2]; [7]
  urinary sodium excretion (natriuretic effect): diuretic but not natriuretic effects
  urine flow (diuretic effect): diuretic but not natriuretic effects
[2]; high is 10 pmol
  glomerular filtration rate: increased glomerular filtration rate at the high level
[2]; high is 10 pmol, super high is 100 pmol
  urinary cGMP excretion: increased urinary cGMP excretion at the high and super high levels
[2]; high level (10 pmol)
  urinary ANP excretion: increased urinary ANP excretion
[2]; super high level (100 pmol)
  urinary BNP excretion: increased urinary BNP excretion
[3]; [8]
  distal and proximal tubular fractional sodium reabsorption: targeted distal tubules
  glomerular filtration rate: no effect
  mean arterial blood pressure: no effect
  renal blood flow: no effect
[3]; [9]
  urinary sodium excretion (natriuretic effect): diuretic and natriuretic effects
  urine flow (diuretic effect): diuretic and natriuretic effects
[3]; normal dogs, super high is 100 pmol
  plasma cGMP: elevated at the super high dose
[3]; normal dogs, two higher doses 10 and 100 pmol
  plasma renin: trend towards a decreased renin at the two higher doses
[4]
  cGMP levels in HASMCs: no effect
[5]
  PAP (pulmonary arterial pressure): without a change
  RAP (right arterial pressure): without a change
  cardiac output: No significant effect
  mean arterial blood pressure: No significant effect
  renal blood flow: No significant effect
  urinary sodium excretion: increase
  urine flow: increase
[5]; 60 minutes after administration
  pulmonary capillary wedge pressure: decrease
[6]
  vasoactivity on pre-constricted rabbit artery: no effect

## ASBNP: variant form of BNP generated by alternative splicing, 60 amino acid residues in length (SEQ ID NO:4) (SPKMVQGSGCFGRKMDRISSSSGLGCKGKHPLPPRPPSPIPVCDTVRVTLGFVVSGNHTL) [reference compound]
[1]
  cGMP levels in HUVECs: minimal effects
[4]
  cGMP levels in HASMCs: minimal effects
[6]
  vasoactivity on pre-constricted rabbit artery: no effect
